Data published in patent publication US8952150B2, “Prostaglandin transporter inhibitors and uses thereof” (Albert Einstein College of Medicine of Yeshiva University, priority 2009, dated 2015).

Target: rat PGT (Rattus norvegicus (Rat), UniProt Q00910)
Assay: [3H]PGE2 uptake inhibition in MDCK cells stably transfected with rat PGT (percent inhibition and IC50)
Assay type: cell-based
Conditions: for Inh (% of Ctl) 1 μM: 1 μM compound; for Inh (% of Ctl) 1 μM / Inh (% of Ctl) 10 μM / Inh (% of Ctl) 0.5 μM / Inh (% of Ctl) 5 μM / Inh (% of Ctl) 0.1 μM / Inh (% of Ctl) 2.5 μM: inhibition of [3H]PGE2 uptake; for Inh (% of Ctl) 10 μM: 10 μM compound; for Inh (% of Ctl) 0.5 μM: 0.5 μM compound; for Inh (% of Ctl) 5 μM: 5 μM compound; for Inh (% of Ctl) 0.1 μM: 0.1 μM compound; for IC50: [3H]PGE2 uptake, MDCK cells stably transfected with rat PGT; for Inh (% of Ctl) 2.5 μM: 2.5 μM compound
Method in brief: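 Rat PGT-transfected MDCK cells, on day 4 after seeding, took up [3H]PGE2 in Waymouth buffer at room temperature, with compound (EtOH stock diluted in buffer) added immediately before tracer. Intracellular radioactivity counted after lysis; percent inhibition versus vehicle, IC50 by fitting y=m1−m1*(m0/(m2+m0)).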

| SMILES | Inh (% of Ctl) 1 μM | Inh (% of Ctl) 10 μM | Inh (% of Ctl) 0.5 μM | Inh (% of Ctl) 5 μM | Inh (% of Ctl) 0.1 μM | IC50 | Inh (% of Ctl) 2.5 μM |
| --- | --- | --- | --- | --- | --- | --- | --- |
| O=C(O)COCCOCCNc1nc(Nc2ccccc2)nc(Nc2ccc(O)cc2)n1 [compound 51] | 17.4 % of Ctl | 29.8 % of Ctl | – | – | – | – | – |
| O=C(NCCOCCOCCNc1nc(NCCO)nc(Nc2ccc(OCc3ccccc3)cc2)n1)c1ccccc1 [compound 6] | – | – | 3.6 % of Ctl | 11.7 % of Ctl | – | – | – |
| NC(=O)c1ccc(Nc2nc(NCCOCCOCCNC(=O)c3ccccc3)nc(Nc3ccc(O)cc3)n2)cc1 [compound 20] | – | – | 9.6 % of Ctl | 14.4 % of Ctl | – | – | – |
| COc1ccc(C(=O)NCCOCCNc2nc(Nc3ccc(O)cc3)nc(Nc3ccc(C(=O)NCc4ccccc4)cc3)n2)cc1 [compound 137] | 75.6 % of Ctl | – | 64.9 % of Ctl | – | 42.0 % of Ctl | 36.7 nM | – |
| O=C(NCCOCCOCCNc1nc(Nc2ccc(O)cc2)nc(Nc2ccc(C(=O)NCc3cccc(-c4ccccc4)c3)cc2)n1)c1ccccc1 [compound 90] | – | – | 23.4 % of Ctl | 72.7 % of Ctl | – | – | 60.6 % of Ctl |
| O=C(NCCOCCOCCNc1nc(Nc2ccc(O)cc2)nc(Nc2ccc(C(=O)NCc3cccc4ccccc34)cc2)n1)c1ccccc1 [compound 89] | – | – | 33.8 % of Ctl | 86.0 % of Ctl | – | – | 76.5 % of Ctl |
| COC(=O)c1ccc(CNc2nc(NCCOCCOCCNC(=O)c3ccccc3)nc(Nc3ccc(C(=O)NCc4ccccc4)cc3)n2)cc1 [compound 117] | – | – | 36.7 % of Ctl | – | 8.1 % of Ctl | – | – |
| COc1cccc(C(=O)NCCOCCOCCNc2nc(Nc3ccccc3)nc(Nc3ccc(O)cc3)n2)c1 [compound 37] | 32.4 % of Ctl | 79.0 % of Ctl | – | – | – | – | – |
| O=C(NCCOCCOCCNc1nc(Nc2ccc(O)cc2)nc(Nc2ccc(C(=O)NCc3ccccn3)cc2)n1)c1ccccc1 [compound 70] | – | – | 21.2 % of Ctl | 84.0 % of Ctl | – | 1050 nM | – |
| O=C(NCCOCCOCCNc1nc(Nc2ccccc2)nc(Nc2ccc3[nH]nnc3c2)n1)c1ccccc1 [compound 95] | 1.9 % of Ctl | 50.4 % of Ctl | – | 23.4 % of Ctl | – | – | – |
| O=C(NCCOCCOCCNc1nc(Cl)nc(Nc2ccc(OCc3ccccc3)cc2)n1)c1ccccc1 [compound 3] | – | – | 0.4 % of Ctl | 1.7 % of Ctl | – | – | – |
| O=C(NCCOCCO)c1ccc(Nc2nc(NCCOCCOCCNC(=O)c3ccccc3)nc(Nc3ccc(O)cc3)n2)cc1 [compound 18] | – | – | 21.1 % of Ctl | 48.9 % of Ctl | – | – | – |
| COC(=O)Cc1ccc(Nc2nc(NCCOCCOCCNC(=O)c3ccccc3)nc(Nc3ccc(C(=O)NCc4ccccc4)cc3)n2)cc1 [compound 122] | – | – | 38.1 % of Ctl | – | 5.8 % of Ctl | – | – |
| O=C(NCc1ccc(F)cc1)c1ccc(Nc2nc(Nc3ccc(O)cc3)nc(Nc3ccc(O)cc3)n2)cc1 [compound 145] | 6.9 % of Ctl | – | 3.1 % of Ctl | – | 7.1 % of Ctl | – | – |
| O=C(NCCCCCNc1nc(Nc2ccccc2)nc(Nc2ccc(O)cc2)n1)c1ccccc1 [compound 85] | 7.6 % of Ctl | 49.6 % of Ctl | – | 12.2 % of Ctl | – | – | – |
| CCCCCCCC(=O)c1ccc(Nc2nc(NCCOCCOCCNC(=O)c3ccccc3)nc(Nc3ccc(O)cc3)n2)cc1 [compound 76] | – | – | 13.5 % of Ctl | 70.5 % of Ctl | – | – | 35.9 % of Ctl |
| O=C(NCCOCCOCCNc1nc(NCCO)nc(Nc2ccc(O)cc2)n1)c1ccccc1 [compound 10] | – | – | 1.4 % of Ctl | 15.0 % of Ctl | – | – | – |
| COc1cc(Nc2nc(NCCOCCOCCNC(=O)c3ccccc3)nc(Nc3ccc(O)cc3)n2)ccc1C(=O)NCc1ccccc1 [compound 81] | – | – | 0.4 % of Ctl | 80.1 % of Ctl | – | – | 16.2 % of Ctl |
